Laboratory results reported in US12421229B2, “Hydropyrido[1,2-α]pyrazine compounds for the treatment of autoimmune disease” (Hoffmann-La Roche Inc., priority 2019, dated 2025).

The compounds below were run against T1, human TLR7 (Homo sapiens, UniProt Q9NYK1) (assay: HEK293-Blue-hTLR-7 cells assay). Settings: HEK293-Blue-hTLR7 cells, R848 stimulation, 20 hrs, SEAP reporter; read-out: HEK/hTLR7 IC50.
T1 construct: host or cells: HEK293 (HEK-Blue hTLR7)
T1 sequence (Q9NYK1 27-1049): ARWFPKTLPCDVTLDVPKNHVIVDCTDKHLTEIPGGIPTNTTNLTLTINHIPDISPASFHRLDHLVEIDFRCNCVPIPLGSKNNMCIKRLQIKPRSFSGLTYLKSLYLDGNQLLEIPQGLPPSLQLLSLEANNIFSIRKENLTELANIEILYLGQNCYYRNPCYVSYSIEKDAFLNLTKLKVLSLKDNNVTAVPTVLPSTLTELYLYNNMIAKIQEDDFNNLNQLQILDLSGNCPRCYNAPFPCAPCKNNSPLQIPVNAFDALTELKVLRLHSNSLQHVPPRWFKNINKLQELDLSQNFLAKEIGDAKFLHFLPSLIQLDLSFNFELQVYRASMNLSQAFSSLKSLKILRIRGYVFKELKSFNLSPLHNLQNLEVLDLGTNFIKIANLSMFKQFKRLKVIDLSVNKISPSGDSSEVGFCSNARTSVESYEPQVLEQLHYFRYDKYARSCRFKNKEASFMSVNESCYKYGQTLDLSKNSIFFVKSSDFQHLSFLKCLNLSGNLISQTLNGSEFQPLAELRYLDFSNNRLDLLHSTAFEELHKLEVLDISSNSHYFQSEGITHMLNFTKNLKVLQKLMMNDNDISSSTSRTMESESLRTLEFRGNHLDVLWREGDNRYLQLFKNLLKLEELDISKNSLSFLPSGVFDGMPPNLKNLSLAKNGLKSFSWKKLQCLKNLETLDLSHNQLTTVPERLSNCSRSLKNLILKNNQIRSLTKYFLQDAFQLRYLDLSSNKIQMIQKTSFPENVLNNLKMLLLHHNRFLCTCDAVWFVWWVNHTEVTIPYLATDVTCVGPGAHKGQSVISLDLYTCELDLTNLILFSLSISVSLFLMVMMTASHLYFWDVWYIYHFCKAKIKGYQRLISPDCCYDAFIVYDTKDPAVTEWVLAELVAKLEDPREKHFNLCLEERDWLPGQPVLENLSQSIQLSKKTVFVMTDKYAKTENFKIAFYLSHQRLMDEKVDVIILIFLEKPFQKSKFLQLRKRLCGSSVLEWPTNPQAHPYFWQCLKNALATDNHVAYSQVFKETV
Format: cell-based
Description: A stable HEK293-Blue-hTLR-7 cell line was purchased from InvivoGen (Cat. #: hkb-htlr7, San Diego, California, USA). These cells were originally designed for studying the stimulation of human TLR7 by monitoring the activation of NF-κB. A SEAP (secreted embryonic alkaline phosphatase) reporter gene was placed under the control of the IFN-β minimal promoter fused to five NF-κB and AP-1-binding sites. The SEAP was induced by activating NF-κB and AP-1 via stimulating HEK-Blue hTLR7 cells with TLR7 ligands. Therefore the reporter expression was declined by TLR7 antagonist under the stimulation of a ligand, such as R848 (Resiquimod), for incubation of 20 hrs. The cell culture supernatant SEAP reporter activity was determined using QUANTI-Blue™ kit (Cat. #: rep-qb1, Invivogen, San Diego, Ca, USA) at a wavelength of 640 nm, a detection medium that turns purple or blue in the presence of alkaline phosphatase.
HEK293-Blue-hTLR7 cells were incubated at a density of 250,000˜450,000 cells/mL in a volume of 170 μL in a 96-well plate in Dulbecco's Modified Eagle's medium (DMEM) containing 4.5 g/L glucose, 50 U/mL penicillin, […], […], 2 mM L-glutamine, 10% (v/v) heat-inactivated fetal bovine serum with addition of 20 μL test compound in a serial dilution in the presence of final DMSO at 1% and 10 μL of 20 uM R848 in above DMEM, perform incubation under 37° C. in a CO2 incubator for 20 hrs. Then 20 μL of the supernatant from each well was incubated with 180 μL Quanti-blue substrate solution at 37° C. for 2 hrs and the absorbance was read at 620˜655 nm using a spectrophotometer. The signaling pathway that TLR7 activation leads to downstream NF-κB activation has been widely accepted, and therefore similar reporter assay was modified for evaluating TLR7 antagonist.

Structure (SMILES) | IC50 [nM]
C[C@@H]1CN(c2ccc(C#N)c3ncccc23)C[C@@H]2C[C@@H](Oc3ccc(N4CCNCC4)nc3)CCN21 [Example 16, 5-[(4R,8S,9aS)-4-methyl-8-[(6-piperazin-1-yl-3-pyridyl)oxy]-1,3,4,6,7,8,9,9a-octahydropyrido[1,2-a]pyrazin-2-yl]quinoline-8-carbonitrile] | 35
C[C@@H]1CN(c2ccc(C#N)c3ncccc23)CC2C[C@H](c3ccc(N4CCNCC4)cc3)CCN21 (stereo partly drawn) [Example 3, 5-[(4R,8R)-4-methyl-8-(4-piperazin-1-ylphenyl)-1,3,4,6,7,8,9,9a-octahydropyrido[1,2-a]pyrazin-2-yl]quinoline-8-carbonitrile] | 10
C[C@@H]1CN(c2ccc(C#N)c3ncccc23)C[C@@H]2C[C@H](c3ccc(N4CC(N)C4)nc3)CCN21 [Example 7, 5-[(4R,8R,9aS)-8-[6-(3-aminoazetidin-1-yl)-3-pyridyl]-4-methyl-1,3,4,6,7,8,9,9a-octahydropyrido[1,2-a]pyrazin-2-yl]quinoline-8-carbonitrile] | 32
C[C@@H]1CN(c2ccc(C#N)c3ncccc23)C[C@@H]2C[C@@H](NCc3ccc(N4CCNCC4)cc3)CCN21 [Example 17, 5-[(4R,8S,9aS)-4-methyl-8-[(4-piperazin-1-ylphenyl)methylamino]-1,3,4,6,7,8,9,9a-octahydropyrido[1,2-a]pyrazin-2-yl]quinoline-8-carbonitrile] | 35
C[C@@H]1CN(c2ccc(C#N)c3ncccc23)C[C@@H]2C[C@H](Nc3ccc([C@H]4CNCCO4)cc3)CCN21 [Example 20, 5-[(4R,8R,9aS)-4-methyl-8-[4-[(2S)-morpholin-2-yl]anilino]-1,3,4,6,7,8,9,9a-octahydropyrido[1,2-a]pyrazin-2-yl]quinoline-8-carbonitrile] | 13
CO[C@@H]1CN(c2ccc(C3CN([C@@H]4CCN5[C@@H](C4)CN(c4ccc(C#N)c6ncccc46)C[C@H]5C)C3)cc2)C[C@H]1N [Example 30, 5-[(4R,8R,9aS)-8-[3-[4-[(3R,4R)-3-amino-4-methoxy-pyrrolidin-1-yl]phenyl]azetidin-1-yl]-4-methyl-1,3,4,6,7,8,9,9a-octahydropyrido[1,2-a]pyrazin-2-yl]quinoline-8-carbonitrile] | 41
C[C@@H]1CN(c2ccc(C#N)c3ncccc23)C[C@@H]2C[C@@H](c3ccc(CC4CNCCO4)cc3)CCN21 (stereo partly drawn) [Example 26, 5-[(4R,8S,9aS)-4-methyl-8-[4-(morpholin-2-ylmethyl)phenyl]-1,3,4,6,7,8,9,9a-octahydropyrido[1,2-a]pyrazin-2-yl]quinoline-8-carbonitrile] | 30
C[C@@H]1CN(c2ccc(C#N)c3ncccc23)C[C@@H]2C[C@@H](c3ccc(C4CNCCO4)cc3)CCN21 (stereo partly drawn) [Example 24, 5-[(4R,8S,9aS)-4-methyl-8-(4-morpholin-2-ylphenyl)-1,3,4,6,7,8,9,9a-octahydropyrido[1,2-a]pyrazin-2-yl]quinoline-8-carbonitrile] | 4
C[C@@H]1CN(c2ccc(C#N)c3ncccc23)C[C@@H]2C[C@H](NCc3ccc(N4CCNCC4)cc3)CCN21 [Example 1, 5-[(4R,8R,9aS)-4-methyl-8-[(4-piperazin-1-ylphenyl)methylamino]-1,3,4,6,7,8,9,9a-octahydropyrido[1,2-a]pyrazin-2-yl]quinoline-8-carbonitrile] | 33
CO[C@@H]1CN(c2ccc([C@@H]3CCN4[C@@H](C3)CN(c3ccc(C#N)c5ncccc35)C[C@H]4C)cn2)C[C@@H]1N [Example 13, 5-[(4R,8R,9aS)-8-[6-[(3S,4R)-3-amino-4-methoxy-pyrrolidin-1-yl]-3-pyridyl]-4-methyl-1,3,4,6,7,8,9,9a-octahydropyrido[1,2-a]pyrazin-2-yl]quinoline-8-carbonitrile] | 21
C[C@@H]1CN(c2ccc(C#N)c3ncccc23)C[C@@H]2CC(c3ccc(C[C@@H]4CNCCO4)cc3)CCN21 (stereo in doubt) [Example 25, 5-[(4R,8R,9aS)-4-methyl-8-[4-[[(2R)-morpholin-2-yl]methyl]phenyl]-1,3,4,6,7,8,9,9a-octahydropyrido[1,2-a]pyrazin-2-yl]quinoline-8-carbonitrile] | 8
[2H]c1ccc2c(N3C[C@@H]4C[C@H](Nc5ccc(C[C@@H]6CNCCO6)cc5)CCN4[C@H](C)C3)ccc(C#N)c2n1 [Example 22, 5-[(4R,8R,9aS)-4-methyl-8-[4-[[(2R)-morpholin-2-yl]methyl]anilino]-1,3,4,6,7,8,9,9a-octahydropyrido[1,2-a]pyrazin-2-yl]-2-deuterio-quinoline-8-carbonitrile] | 44
CO[C@H]1CN(c2ccc(O[C@H]3CCN4[C@@H](C3)CN(c3ccc(C#N)c5ncccc35)C[C@H]4C)cn2)C[C@H]1N [Example 28, 5-[(4R,8S,9aS)-8-[[6-[(3R,4S)-3-amino-4-methoxy-pyrrolidin-1-yl]-3-pyridyl]oxy]-4-methyl-1,3,4,6,7,8,9,9a-octahydropyrido[1,2-a]pyrazin-2-yl]quinoline-8-carbonitrile] | 47
C[C@@H]1CN(c2ccc(C#N)c3ncccc23)C[C@H]2C[C@H](c3ccc(N4CCNCC4)nc3)CCN21 [Example 15, 5-[(4R,8R,9aR)-4-methyl-8-(6-piperazin-1-yl-3-pyridyl)-1,3,4,6,7,8,9,9a-octahydropyrido[1,2-a]pyrazin-2-yl]quinoline-8-carbonitrile] | 24
[2H]c1ccc2c(N3C[C@@H]4C[C@@H](N5CC(c6ccc(N7C[C@@H](N)[C@H](OC)C7)cc6)C5)CCN4[C@H](C)C3)ccc(C#N)c2n1 [Example 36] | 30
C[C@@H]1CN(c2ccc(C#N)c3ncccc23)C[C@@H]2C[C@@H](Oc3cncc(N4CCNCC4)c3)CCN21 [Example 29, 5-[(4R,8S,9aS)-4-methyl-8-[(5-piperazin-1-yl-3-pyridyl)oxy]-1,3,4,6,7,8,9,9a-octahydropyrido[1,2-a]pyrazin-2-yl]quinoline-8-carbonitrile] | 49
C[C@@H]1CN(c2ccc(C#N)c3ncccc23)C[C@@H]2C[C@@H](Oc3cnc(N4CCNCC4)nc3)CCN21 [Example 18, 5-[(4R,8S,9aS)-4-methyl-8-(2-piperazin-1-ylpyrimidin-5-yl)oxy-1,3,4,6,7,8,9,9a-octahydropyrido[1,2-a]pyrazin-2-yl]quinoline-8-carbonitrile] | 21
C[C@@H]1CN(c2ccc(C#N)c3ncccc23)C[C@@H]2C[C@H](c3ccc(N4CCNCC4)nc3)CCN21 [Example 4, 5-[(4R,8R,9aS)-4-methyl-8-(6-piperazin-1-yl-3-pyridyl)-1,3,4,6,7,8,9,9a-octahydropyrido[1,2-a]pyrazin-2-yl]quinoline-8-carbonitrile] | 6
CO[C@H]1CN(c2ccc(C3CN([C@@H]4CCN5[C@@H](C4)CN(c4ccc(C#N)c6ncccc46)C[C@H]5C)C3)cc2)C[C@H]1N [Example 32, 5-[(4R,8R,9aS)-8-[3-[4-[(3R,4S)-3-amino-4-methoxy-pyrrolidin-1-yl]phenyl]azetidin-1-yl]-4-methyl-1,3,4,6,7,8,9,9a-octahydropyrido[1,2-a]pyrazin-2-yl]quinoline-8-carbonitrile] | 48
